Measured values as given in article PMC11211441, “Distributable, metabolic PET reporting of tuberculosis” (Nature Communications, 2024).

Columns and labels:
[1] = Single and repeat iv dose toxicity study in dogs; format: in vivo; settings: beagle dogs, 100 x or 1000 x expected human dose iv
Method: For toxicity studies, 2 g of [^19F]-FDT was synthesized and tested for quality control as described above and in Figs.39 and shipped to a contract research organization. Toxicity studies were conducted by SRI International, Biosciences Division, Menlo Park, CA, USA in rats and dogs. The experimental design is described in Tables S10, S11, respectively.
To assess the toxicity associated with [^19F]-FDT in dogs, male and female Beagle dogs (5/sex) were given a daily iv injection of [^19F]-FDT at 0.4 mg/kg/day (100 times of human dose; Group 2) for 7 consecutive days, or a single iv administration of [^19F]-FDT at 0.4 or 4 mg/kg (100 and 1000 times of human dose in Groups 3 and 4, respectively) on Day 7. A control group (5/sex; Group 1), was given 7 days of vehicle (HEPES buffer, pH 7.5, 50 mM with MgCl2 7.5 mM), at an equivalent dose volume of 0.25 ml/kg on Days 1–7. Animals were sacrificed on Day 9 (3/sex/ group; main groups) or Day 21 (2/sex/group; recovery groups). The single dose administration for Groups 3–4 were initiated on Day 7 so that clinical pathology and necropsy occurred on the same calendar day for all Groups (1–4), thus allowing for sharing of vehicle control data for analysis of clinical pathology and necropsy results between the two dose regimens.

[2] = Detection/stability of [19F]FDT in human plasma; format: in vitro ADME; settings: spiked human plasma, LC-MS
Method: FDT standards were prepared in human plasma (Sigma Aldrich), whereby 20 μL plasma samples were spiked with various known concentrations of [^19F]FDT i.e. 10 μM, 20 μM, 40 μM, 120 μM, 160 μM, and 300 μM in 1.5 ml Eppendorf tube and diluted with up to 50% acetonitrile solution. Samples were vortexed for 1 min and centrifuged at 13000 rpm (15871 x g) for 10 min and supernatant was analyzed directly by LC-MS using LC method 2.
Figure S35. Detection of [19F]FDT for Assessment of Stability in Human Plasma
A) Experimental set-up of the sample preparation. Commercially available human plasma samples were spiked with known concentrations of [19F] FDT, plasma proteins were then precipitated by adding up to 50% of MeCN solution and after centrifugation the samples were analysed by LC-MS. Panel A created with BioRender.com, released under a Creative Commons Attribution-NonCommercial-NoDerivs 4.0 International license. B) [19F]FDT standard sample analysed by LC-MS method 2 with the retention time of 6.5 min. C) LC-MS analysis of plasma sample spiked with known amount of FDT showing the similar retention […]
efficient detection. D) Calibration curve of plasma samples when spiked with FDT concentrations from 10 µM – 300 µM with r2 = 0.998 and E) Further calibration curve showing instrument sensitivity down to > 390 nM for detection of FDT ( r2 = 0.998 ). […]

OC[C@H]1O[C@H](O[C@H]2O[C@H](CO)[C@@H](O)[C@H](O)[C@H]2F)[C@H](O)[C@@H](O)[C@@H]1O [[^19F]FDT]
adverse findings in any parameters measured [1]: no adverse findings
stability in human plasma [2]: no immediate degradation or apparent sequestration
